What was measured:
Lp-PLA2 = target: T1, Lp-PLA2 (Homo sapiens, UniProt Q13093); assay: Lp-PLA2 activity measurement in serum/plasma with reagents of the invention (PAF substrate, lyso-PAF-PLD, choline oxidase, peroxidase colorimetry); format: biochemical; conditions: Example 9; for Lp-PLA2 activity value / absorbance change per minute (sensitivity): 10 mM substrate in R2; for Relative activity: PAF(C16) = 100
T1 construct: Individual serum No. 16, individual serum No. 78; from tissue; host or cells: serum and plasma (individual sera, pooled sera, heparin and citrated pooled plasma)
T1 sequence (Q13093 22-441): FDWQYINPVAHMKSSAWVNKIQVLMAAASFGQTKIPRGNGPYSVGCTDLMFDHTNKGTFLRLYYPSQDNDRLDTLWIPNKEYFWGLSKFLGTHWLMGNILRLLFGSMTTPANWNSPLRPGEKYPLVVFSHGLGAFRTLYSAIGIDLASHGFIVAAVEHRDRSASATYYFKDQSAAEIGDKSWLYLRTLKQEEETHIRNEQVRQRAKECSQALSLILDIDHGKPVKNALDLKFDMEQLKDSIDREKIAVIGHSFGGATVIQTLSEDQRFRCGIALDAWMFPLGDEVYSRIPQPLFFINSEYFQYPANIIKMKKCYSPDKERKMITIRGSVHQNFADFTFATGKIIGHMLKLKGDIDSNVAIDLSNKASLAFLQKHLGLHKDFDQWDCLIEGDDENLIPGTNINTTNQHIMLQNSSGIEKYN
Experimental: Unless otherwise specified, in these examples the Method 1 described under 1) below is used for calculating Lp-PLA2 activity values. In these examples, (nmol/min/mL) is sometimes expressed as (U/L).
This is calculated by the following formula based on the absorbance change per minute (ΔmAbs/min) as calculated from absorbance at the measuring points and the millimolar extinction coefficient (ε=36) of TODB at 546 nm.
(§1) 4 μL of the sample was mixed with 160 μL of the R1 reagent, and incubated for 5 minutes at 37° C. (measuring points 1 to 16), after which 40 μL of the R2 reagent was added to initiate a reaction (measuring point 17). The absorbance of water (blank) at the same measuring points was subtracted from the absorbance of the sample about 3.6 to 4.5 minutes after the reaction was initiated by addition of the R2 reagent (measuring points 30 to 33) to calculate the absorbance change per minute (ΔmAbs/min), and the Lp-PLA2 activity value (nmol/min/mL) was calculated according to the previous formula.
[…] was mixed with 150 μL of the R1 reagent, and incubated for 5 minutes at 37° C. (measuring points 1 to 15), after which 100 μL of the R2 reagent was added to initiate a reaction (measuring point 16). The absorbance of water (blank) at the same measuring points was subtracted from the absorbance of the sample about 2 to 3 minutes after the reaction was initiated by addition of the R2 reagent (measuring points 23 to 26) to calculate the absorbance change per minute (ΔmAbs/min), and the Lp-PLA2 activity value (nmol/min/mL) was calculated according to the previous formula. The values for absorbance change per minute (sensitivity) (ΔmAbs/min) and the Lp-PLA2 activity values (nmol/min/mL) at each pH are shown in Tables 1 and 2.
(§2) 5 μL of sample was mixed with 150 μL of the R1 reagent, and incubated for 5 minutes at 37° C. (measuring points 1 to 15), after which 100 μL of the R2 reagent was added to initiate a reaction (measuring point 16). The absorbance of water (blank) at the same measuring points was subtracted from the absorbance of the sample about 3.5 to 4.5 minutes after the reaction was initiated by addition of the R2 reagent (measuring points 27 to 30) to calculate the absorbance change per minute (ΔmAbs/min), and the Lp-PLA2 activity value (nmol/min/mL) was calculated according to the previous formula. The values for absorbance change per minute (sensitivity) (ΔmAbs/min) and Lp-PLA2 activity (nmol/min/mL) and the relative activity for each substrate given 100 as the Lp-PLA2 activity value for PAF(C16) are shown in Tables 19 to 24.
Each sample was mixed with 160 μL of the R1 reagent, and incubated for 5 minutes at 37° C., (measuring points 1 to 15), after which 40 μL of the R2 reagent was added to initiate the reaction (measuring point 16). The absorbance of water (blank) at the same measuring points was subtracted from the absorbance of the sample about 3.5 to 4.5 minutes after the reaction was initiated by addition of the R2 reagent (measuring points 27 to 30) to calculate the absorbance change per minute (ΔmAbs/min), and the Lp-PLA2 activity value (nmol/min/mL) was calculated according to the previous formula. […]
as §1, with “(measuring” for “4 μL of the sample was mixed with 160 μL of the R1 reagent, and incubated for 5 minutes at 37° C. (measuring”, “100” for “40”, “3.5” for “3.6”, “29” for “30”, “32)” for “33)”

rLp-PLA2 = target: T2, rLp-PLA2 (Homo sapiens, UniProt Q13093, I42M); assay: Lp-PLA2 activity measurement with reagents of the invention, recombinant Lp-PLA2 as sample; format: biochemical; conditions: Example 9, sample rLp-PLA2 (0.017 mg/mL); for Lp-PLA2 activity value / absorbance change per minute (sensitivity): 10 mM substrate in R2; for Relative activity: PAF(C16) = 100
T2 construct: histidine tag (from vector pET-19b) (N); made in house; host or cells: E. coli BL21(DE3), plasmid Lp-PLA2/pET-19b
T2 sequence (Q13093 42-441 I42M): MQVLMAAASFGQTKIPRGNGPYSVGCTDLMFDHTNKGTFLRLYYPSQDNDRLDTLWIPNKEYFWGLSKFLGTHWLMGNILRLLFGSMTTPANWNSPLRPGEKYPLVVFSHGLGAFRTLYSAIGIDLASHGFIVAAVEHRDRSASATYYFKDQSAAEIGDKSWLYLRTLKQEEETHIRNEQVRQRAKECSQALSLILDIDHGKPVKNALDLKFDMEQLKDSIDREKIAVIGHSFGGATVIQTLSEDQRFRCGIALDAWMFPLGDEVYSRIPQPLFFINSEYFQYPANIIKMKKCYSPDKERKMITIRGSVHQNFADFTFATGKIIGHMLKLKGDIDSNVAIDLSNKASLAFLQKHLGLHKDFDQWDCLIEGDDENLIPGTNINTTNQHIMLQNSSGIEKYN
Experimental: The recombinant Lp-PLA2 (rLp-PLA2) used in these examples was prepared in accordance with Reference Examples 4 to 6 based on the information disclosed in J. Biol. Chem., Oct. 27, 1995, No. 43, Vol. 270, pp. 25481-25487.
A gene optimized for E. coli (matched to E. coli codon usage) was synthesized (GenScript (NJ, USA)) based on the sequence data for a human Lp-PLA2 gene. Using the synthesized DNA as a template, a roughly 1200 bp PCR product was obtained by PCR using KOD FX (Toyobo Co., Ltd.) using as the sense primer the nucleotide sequence of SEQ ID NO: 5 in which the 42nd isoleucine was changed to the sequence of the initial methionine, with the nucleotide sequence of SEQ ID NO: 6 as the antisense primer. The resulting PCR product was digested with NdeI (Takara Bio Inc.) and BamHI (Takara Bio Inc.), and inserted into the NdeI-BamHI site of the expression vector pET-19b (Novagen) to obtain an Lp-PLA2/pET-19b expression plasmid. This expression plasmid was transformed into One shot BL21(DE3) Chemically Competent E. coli, to obtain a transformant called Lp-PLA2/pET-19b/BL21(DE3) comprising a recombinant vector containing a polynucleotide consisting of a nucleotide sequence encoding Lp-PLA2 with a histidine tag from the vector added at the N-terminus.
as §2

With `CCCCCCCCCCCCCCCCOC[C@H](COP(=O)([O-])OCC[N+](C)(C)C)OC(C)=O` [PAF(C16), 1-O-Hexadecyl-2-acetyl-sn-glycero-3-phosphocholine] the Lp-PLA2 activity value (Lp-PLA2; sample Citrated pooled plasma) was 33.3 nmol/min/mL, the “absorbance change per minute (sensitivity)” value (“absorbance change per minute” below) (Lp-PLA2; sample Citrated pooled plasma) was 23.5 ΔmAbs/min and the Lp-PLA2 activity value (Lp-PLA2; sample Heparin pooled plasma) was 44.3 nmol/min/mL. The “absorbance change per minute” value (Lp-PLA2; sample Heparin pooled plasma) was 31.3 ΔmAbs/min, the Lp-PLA2 activity value (Lp-PLA2; sample Individual serum 16) was 94.8 nmol/min/mL and the “absorbance change per minute” value (Lp-PLA2; sample Individual serum 16) was 66.9 ΔmAbs/min. For the same compound, the Lp-PLA2 activity value (Lp-PLA2; sample Pooled serum C) was 40.8 nmol/min/mL, the “absorbance change per minute” value (Lp-PLA2; sample Pooled serum C) was 28.8 ΔmAbs/min and the Lp-PLA2 activity value (Lp-PLA2; sample Pooled serum J042) was 40.8 nmol/min/mL. For the same compound, the “absorbance change per minute” value (Lp-PLA2; sample Pooled serum J042) was 28.8 ΔmAbs/min, the Relative activity (Lp-PLA2; sample Citrated pooled plasma) was 100% and the Relative activity (Lp-PLA2; sample Heparin pooled plasma) was 100%. It also gave a Relative activity (Lp-PLA2; sample Individual serum 16) of 100%, a Relative activity (Lp-PLA2; sample Pooled serum C) of 100% and a Relative activity (Lp-PLA2; sample Pooled serum J042) of 100%. For the same compound, the Lp-PLA2 activity value (rLp-PLA2) was 132.3 nmol/min/mL, the “absorbance change per minute” value (rLp-PLA2) was 93.4 ΔmAbs/min and the Relative activity (rLp-PLA2) was 100%.

`CCCCCCCCCCCCCCCC(=O)OC[C@H](COP(=O)([O-])OCC[N+](C)(C)C)OC(C)=O` [1-Palmitoyl-2-acetyl-sn-glycero-PC, 1-Palmitoyl-2-acetyl-sn-glycero-3-phosphocholine] was tested, and the Lp-PLA2 activity value (Lp-PLA2; sample Citrated pooled plasma) was 34.4 nmol/min/mL, the “absorbance change per minute” value (Lp-PLA2; sample Citrated pooled plasma) was 24.3 ΔmAbs/min and the Lp-PLA2 activity value (Lp-PLA2; sample Heparin pooled plasma) was 44.1 nmol/min/mL. The “absorbance change per minute” value (Lp-PLA2; sample Heparin pooled plasma) was 31.1 ΔmAbs/min, the Lp-PLA2 activity value (Lp-PLA2; sample Individual serum 16) was 82.3 nmol/min/mL and the “absorbance change per minute” value (Lp-PLA2; sample Individual serum 16) was 58.1 ΔmAbs/min. For the same compound, the Lp-PLA2 activity value (Lp-PLA2; sample Pooled serum C) was 44.9 nmol/min/mL, the “absorbance change per minute” value (Lp-PLA2; sample Pooled serum C) was 31.7 ΔmAbs/min and the Lp-PLA2 activity value (Lp-PLA2; sample Pooled serum J042) was 45.2 nmol/min/mL. The “absorbance change per minute” value (Lp-PLA2; sample Pooled serum J042) was 31.9 ΔmAbs/min, the Relative activity (Lp-PLA2; sample Citrated pooled plasma) was 103% and the Relative activity (Lp-PLA2; sample Heparin pooled plasma) was 99%. For the same compound, the Relative activity (Lp-PLA2; sample Individual serum 16) was 87%, the Relative activity (Lp-PLA2; sample Pooled serum C) was 110% and the Relative activity (Lp-PLA2; sample Pooled serum J042) was 111%. The Lp-PLA2 activity value (rLp-PLA2) was 98.7 nmol/min/mL, the “absorbance change per minute” value (rLp-PLA2) was 69.7 ΔmAbs/min and the Relative activity (rLp-PLA2) was 75%.
